Measurements as given in the CheMixHub viscosity set.
Values joined by “and” are separate entries in the source; they are usually repeats but may differ in a detail not shown here. Equal entries are not always repeated.

Assay: xn = mol fraction of the nth substance listed

CCCCN + Cc1ccccc1
303.15 K, 101 kPa
Details | viscosity [mPa·s]
x1 = 0.0685 | 0.51
x1 = 0.1474 | 0.497
x1 = 0.2553 | 0.485
x1 = 0.328 | 0.474
x1 = 0.4247 | 0.464
x1 = 0.5197 | 0.457
x1 = 0.6107 | 0.453
x1 = 0.6993 | 0.449
x1 = 0.7946 | 0.446
x1 = 0.8819 | 0.445
x1 = 0.9407 | 0.444
x2 = 0.1475 | 0.4405
x2 = 0.2127 | 0.441
x2 = 0.2918 | 0.439
x2 = 0.3842 | 0.4402
x2 = 0.5074 | 0.4449
x2 = 0.6083 | 0.4543
x2 = 0.7064 | 0.4677
x2 = 0.8686 | 0.4956

O=C(O)C(Cl)(Cl)Cl + Oc1ccccc1
323.15 K, 101 kPa
Details | viscosity [mPa·s]
x2 = 0.1005 | 5.083
x2 = 0.1834 | 5.115
x2 = 0.245 | 5.126
x2 = 0.3305 | 5.085
x2 = 0.4032 | 5.012
x2 = 0.5025 | 4.779
x2 = 0.5925 | 4.683
x2 = 0.6928 | 4.342
x2 = 0.76 | 4.127
x2 = 0.8544 | 3.811
x2 = 0.9117 | 3.569

CCCCN + O
viscosity
Details | 298.15 K | 303.15 K | 308.15 K | 313.15 K | 318.15 K | 323.15 K
100 kPa, x1 = 0.1 | – | 1.869 mPa·s | – | 1.43 mPa·s | – | 1.133 mPa·s
100 kPa, x1 = 0.2 | – | 2.115 mPa·s | – | 1.604 mPa·s | – | 1.25 mPa·s
100 kPa, x1 = 0.3 | – | 1.933 mPa·s | – | 1.462 mPa·s | – | 1.143 mPa·s
100 kPa, x1 = 0.4 | – | 1.597 mPa·s | – | 1.234 mPa·s | – | 0.979 mPa·s
100 kPa, x1 = 0.5 | – | 1.273 mPa·s | – | 0.996 mPa·s | – | 0.808 mPa·s
100 kPa, x1 = 0.6 | – | 0.993 mPa·s | – | 0.796 mPa·s | – | 0.654 mPa·s
100 kPa, x1 = 0.7 | – | 0.786 mPa·s | – | 0.649 mPa·s | – | 0.547 mPa·s
100 kPa, x1 = 0.8 | – | 0.626 mPa·s | – | 0.533 mPa·s | – | 0.453 mPa·s
100 kPa, x1 = 0.9 | – | 0.541 mPa·s | – | 0.454 mPa·s | – | 0.393 mPa·s
101.33 kPa, x1 = 0.0001 | – | 0.8019 mPa·s | 0.7212 mPa·s | 0.6564 mPa·s | 0.6007 mPa·s | 0.5542 mPa·s
101.33 kPa, x1 = 0.1 | 2.372 mPa·s | 1.885 mPa·s | 1.642 mPa·s | 1.574 mPa·s and 1.441 mPa·s | 1.278 mPa·s | 1.142 mPa·s
101.33 kPa, x1 = 0.1998 | – | 2.149 mPa·s | 1.861 mPa·s | 1.625 mPa·s | 1.433 mPa·s | 1.271 mPa·s
101.33 kPa, x1 = 0.2 | 2.685 mPa·s | – | – | 1.742 mPa·s | – | –
101.33 kPa, x1 = 0.2999 | – | 1.964 mPa·s | 1.707 mPa·s | 1.494 mPa·s | 1.318 mPa·s | 1.172 mPa·s
101.33 kPa, x1 = 0.3999 | – | 1.601 mPa·s | 1.405 mPa·s | 1.242 mPa·s | 1.111 mPa·s | 0.9871 mPa·s
101.33 kPa, x1 = 0.4 | 2.006 mPa·s | – | – | 1.353 mPa·s | – | –
101.33 kPa, x1 = 0.5 | – | 1.259 mPa·s | 1.118 mPa·s | 0.9974 mPa·s | 0.8979 mPa·s | 0.8131 mPa·s
101.33 kPa, x1 = 0.5997 | – | 0.9797 mPa·s | 0.8813 mPa·s | 0.7976 mPa·s | 0.726 mPa·s | 0.6647 mPa·s
101.33 kPa, x1 = 0.6 | 1.153 mPa·s | – | – | 0.842 mPa·s | – | –
101.33 kPa, x1 = 0.7 | – | 0.7677 mPa·s | 0.701 mPa·s | 0.6419 mPa·s | 0.5911 mPa·s | 0.5472 mPa·s
101.33 kPa, x1 = 0.7999 | – | 0.6277 mPa·s | 0.5795 mPa·s | 0.5366 mPa·s | 0.4994 mPa·s | 0.4656 mPa·s
101.33 kPa, x1 = 0.8 | 0.686 mPa·s | – | – | 0.54 mPa·s | – | –
101.33 kPa, x1 = 0.9001 | – | 0.5178 mPa·s | 0.4829 mPa·s | 0.4518 mPa·s | 0.4243 mPa·s | 0.399 mPa·s
